Source: patent US8507472B2 (priority 2010, dated 2013)
“And” between values parts separate entries of the source, which are not always exact repeats. Equal entries are not always repeated. Where two headings read alike, the source gives them in different places.

Columns and labels:
Pyricularia oryzae = settings: in vivo
Uromyces appendiculatus = assay: Uromyces test (bean)/protective; format: in vivo
Summary of the method: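 Young bean plants sprayed with compound formulated in acetone/dimethylacetamide with emulsifier, inoculated with Uromyces appendiculatus spores after drying, held 1 day at ~20 °C and 100% humidity, then greenhouse ~21 °C, ~90% humidity. Efficacy scored 10 days post-inoculation, 0% = untreated control, 100% = no infection.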

Puccinia triticina = Puccinia triticina test (wheat)/protective; format: in vivo
Experimental: Solvent: 49 parts by weight of […]
(§1) Emulsifier: 1 part by weight of alkylaryl polyglycol ether
To produce a suitable preparation of active compound, 1 part by weight of active compound is mixed with the stated amounts of solvent and emulsifier, and the concentrate is diluted with water to the desired concentration.
To test for protective activity, young plants are sprayed with the active compound preparation at the stated application rate.
After the spray coating has dried on, the plants are sprayed with spores of a spore suspension of Puccinia triticina. The plants remain in an incubation cabin at 20° C. and 100% relative atmospheric humidity for 48 hours.
The plants are placed in greenhouse at a temperature of about 20° C. and a relative atmospheric humidity of about 80%.
Evaluation is carried out 8 days after the inoculation. 0% means an efficacy which corresponds to that of the control, whereas an efficacy of 100% means that no infection is observed.

Gibberella zeae = settings: in vivo
Leptosphaeria nodorum = Leptosphaeria nodorum test (wheat)/protective; format: in vivo
Summary of the method: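 Young wheat plants were sprayed protectively, then inoculated 1 day later with L. nodorum spores and held 48 h at 100% humidity and 22° C. They were then kept in a greenhouse at 90% humidity and 22° C. Efficacy was scored 7-9 days post-inoculation, where 0% equals control and 100% means no infection.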

Botrytis cinerea = assay: Botrytis test (bean)/protective; format: in vivo; settings: 100 ppm active compound, protective, evaluation 2 days after inoculation
Summary of the method: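 Young bean plants sprayed at the stated rate with compound in acetone/dimethylacetamide plus alkylaryl polyglycol ether emulsifier, diluted in water. Once dry, each leaf got 2 agar pieces colonized by Botrytis cinerea; kept dark at about 20° C., 100% humidity. Infected area scored after 2 days; 0% = control, 100% = no infection.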

Septoria tritici = Septoria tritici test (wheat)/protective; format: in vivo
Experimental: Solvent: 49 parts by weight of N,N-dimethylacetamide
as §1
To produce a suitable preparation of active compound, 1 part by weight of active compound is mixed with the stated amount of solvent and emulsifier, and the concentrate is diluted with water to the desired concentration.
To test for protective activity, young plants are sprayed with the active compound preparation at the stated application rate. After the spray coating has dried on, the plants are sprayed with a spore suspension of Septoria tritici. The plants remain in an incubation cabin at 20° C. and 100% relative atmospheric humidity for 48 hours. The plants are then placed under a translucent hood at 15° C. and 100% relative atmospheric humidity for a further 60 hours.
The plants are placed in a greenhouse at a temperature of about 15° C. and a relative atmospheric humidity of 80%.
Evaluation is carried out 21 days after the inoculation. 0% means an efficacy which corresponds to that of the control, whereas an efficacy of 100% means that no infection is observed.

Alternaria solani = assay: Alternaria test (tomato)/protective; format: in vivo
Summary of the method: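 Young tomato plants were sprayed with compound (DMF/emulsifier formulation diluted in water) and inoculated with A. solani spores 1 day later. Plants were kept 24 h at 100% RH and 22 °C, then at 96% RH and 20 °C. Efficacy was scored 7 days post-inoculation, where 0% equals untreated control and 100% means no infection.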

Rhizoctonia solani = assay: Rhizoctonia test (rice)/protective; format: in vivo; settings: 250 ppm active compound, protective, evaluation 4 days after inoculation
Experimental: Solvent: 28.5 parts by weight of acetone
Emulsifier: 1.5 parts by weight of alkylaryl polyglycol ether
To produce a suitable preparation of active compound, 1 part by weight of active compound is mixed with the stated amount of solvent, and the concentrate is diluted with water and the stated amount of emulsifier to the desired concentration.
To test for protective activity, young rice plants are sprayed with the active compound preparation at the stated application rate. 1 day after the treatment, the plants are inoculated with hyphae of Rhizoctonia solani. The plants are then placed in a greenhouse at 100% relative atmospheric humidity and 25° C.
Evaluation is carried out 4 days after the inoculation. 0% means an efficacy which corresponds to that of the control, whereas an efficacy of 100% means that no infection is observed.

Fusarium graminearum [1] = format: in vivo
Venturia inaequalis = assay: Venturia test (apple)/protective; format: in vivo; settings: 100 ppm active compound, protective, evaluation 10 days after inoculation
Summary of the method: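 Young apple plants sprayed protectively with compound (in acetone/dimethylacetamide with alkylaryl polyglycol ether, diluted in water) at the stated rate, then inoculated with V. inaequalis conidia once dry. Held 1 day at ~20° C, 100% humidity, then greenhouse ~21° C, ~90% humidity; efficacy scored 10 days post-inoculation (0% = control, 100% = no infection).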

Cochliobolus miyabeanus = assay: Cochliobolus test (rice)/protective; format: in vivo; settings: 250 ppm active compound, protective, evaluation 4 days after inoculation
[2] = system: Fusarium nivale (var. majus); assay: Fusarium nivale (var. majus) test (wheat)/protective; format: in vivo; settings: 1000 ppm active compound, protective, evaluation 5 days after inoculation
Summary of the method: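 Protective spray of young wheat plants at the stated rate (compound in dimethylacetamide with emulsifier, diluted in water), then inoculation with Fusarium nivale spores once dry. Plants kept at 10 °C and 100% humidity; scored 5 days after inoculation as % efficacy, where 0% equals untreated control and 100% means no infection.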

DON/AcDON production = assay: microbe, parasite or virus in culture; format: cell-based, Fusarium graminearum; settings: 7 days at 28° C.
Phytophthora infestans = format: in vivo
Fusarium graminearum [3] = assay: microbe, parasite or virus in culture; format: cell-based
Sphaerotheca fuliginea = assay: Sphaerotheca test (cucumber)/protective; format: in vivo
Summary of the method: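 Protective test: young cucumber plants sprayed with compound (DMF/alkylaryl polyglycol ether concentrate diluted in water) at the stated rate, inoculated with S. fuliginea spores 1 day later, then kept in greenhouse at 23 °C, 70% RH. Efficacy scored 7 days post-inoculation; 0% equals untreated control, 100% means no infection.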

Pyrenophora teres = Pyrenophora teres test (barley)/protective; format: in vivo
Summary of the method: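 Protective test: young barley plants sprayed at the stated rate with compound in DMF/alkylaryl polyglycol ether diluted with water, inoculated with P. teres spores 1 day later, kept 48 h at 100% rel. humidity and 22° C., then greenhouse at 80% and 20° C. Efficacy scored 7-9 days post-inoculation (0% = control, 100% = no infection).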

[4] = log P determination by HPLC retention times (alkan-2-one calibration)
[5] = 500 ppm active compound, tomato, protective, evaluation 7 days after inoculation

Row | SMILES | efficacy in % (Pyricularia oryzae) [%] | efficacy in % (Uromyces appendiculatus; in vivo) [%] | efficacy in % (Puccinia triticina; in vivo) | efficacy in % (Leptosphaeria nodorum; in vivo) [%] | efficacy in % (Botrytis cinerea) [%] | efficacy in % (Septoria tritici; in vivo) [%] | efficacy in % (Alternaria solani; in vivo) [%] | efficacy in % (Rhizoctonia solani) [%] | efficacy in % (Fusarium graminearum [1]; in vivo) [%] | efficacy in % (Venturia inaequalis) [%] | efficacy in % (Cochliobolus miyabeanus) [%] | efficacy in % [2] [%] | % inhibition of DON/AcDON at 50 μM (DON/AcDON production) [%] | efficacy in % (Phytophthora infestans; in vivo) [%] | % inhibition of the fungal growth of Fusarium graminearum at 50 μM (Fusarium graminearum [3]) [%] | efficacy in % (Sphaerotheca fuliginea; in vivo) [%] | efficacy in % (Pyrenophora teres; in vivo) [%] | other results
1 | CC(C)C(=O)Nc1cc(-c2c(-c3ccc(F)cc3)nn3c2CCCC3)ccn1 [Example 28] | 90 | 95 | 100% | 90 | 95 | 100 | 100 | 100 | 100 | 100 | 95 | 100 | 99 | 95 | 100 | 100 | 100 | efficacy in % (Gibberella zeae): 85%
2 | O=C(Nc1cc(-c2c(-c3ccccc3)nn3c2CCCC3)ccn1)C1CC1 [Example 21] | 98 | 94 | 95% | 95 | 98 | 100 | 100 | 100 | 100 | 99 | 96 | 100 | 100 | 90 | 97 | 100 | 100 | 
3 | CC(C)CC(=O)Nc1cc(-c2c(-c3ccc(F)cc3)nn3c2CCCC3)ccn1 [Example 30] | 94 | 95 | 88% | 90 | 100 | 100 | 100 | 100 | 88 | 99 | 96 | 86 | 99 | 80 | 88 | 95 | 100 | 
4 | CC(C)CC(=O)Nc1cc(-c2c(-c3ccccc3)nn3c2CCCC3)ccn1 [Example 31] | 98 | 94 | 94% | 90 | 90 | 100 | 94 | 100 | 100 | 100 | 95 | 100 | 99 | 80 | 97 | 95 | 100 | efficacy in % (Gibberella zeae): 80%
5 | O=C(Nc1cc(-c2c(-c3ccc(F)cc3)nn3c2CCCC3)ccn1)C1CC1 [Example 20] | 92 | 94 | 100% | 95 | 98 |  | 100 | 100 | 94 | 99 | 96 | 100 | 100 | 100 | 95 | 100 | 100 | 
6 | CC(=O)Nc1cc(-c2c(-c3ccccc3)nn3c2CCCC3)ccn1 [Example 19] | 92 | 94 | 100% and 95% | 95 | 99 | 100 | 100 | 100 | 100 | 93 | 96 | 100 | 100 | 100 | 100 | 98 | 100 | 
7 | COC(=O)Nc1cc(-c2c(-c3ccc(F)cc3)nn3c2CCCC3)ccn1 [Example 26, Methyl{4-[2-(4-fluorophenyl)-4,5,6,7-tetrahydropyrazolo[1,5-a]pyridin-3-yl]-pyridin-2-yl}carbamate] |  |  |  |  | 93 |  |  |  |  | 93 |  | 86 |  |  |  |  |  | efficacy in % (Uromyces appendiculatus; 100 ppm active compound, bean, protective, evaluation 10 days after inoculation): 94%; efficacy in % (Puccinia triticina; 1000 ppm active compound, wheat, protective, evaluation 8 days after inoculation): 100%; efficacy in % (Leptosphaeria nodorum; 500 ppm active compound, wheat, protective, evaluation 7-9 days after inoculation): 80%; efficacy in % (Septoria tritici; 1000 ppm active compound, wheat, protective, evaluation 21 days after inoculation): 86%; efficacy in % (Alternaria solani; [5]): 100%; chromatographic logP ([4]; log P(HCOOH), HCOOH, preparation examples in the text): 2.11; chromatographic logP ([4]; log P, values marked [a] in Table 1): 2.11; chromatographic logP ([4]; log P, values marked [b] in Table 1): 2.56; efficacy in % (Fusarium graminearum [1]; 1000 ppm active compound, barley, protective, evaluation 5 days after inoculation): 88%; inhibition at 50 µM (DON/AcDON production; Fusarium graminearum, 168 h): 98%; efficacy in % (Phytophthora infestans; [5]): 95%; inhibition at 50 µM (Fusarium graminearum [3]; Fusarium graminearum, 72 h, read-out: % inhibition of the fungal growth of Fusarium graminearum at 50 μM): 57%; efficacy in % (Sphaerotheca fuliginea; 500 ppm active compound, cucumber, protective, evaluation 7 days after inoculation): 98%; efficacy in % (Pyrenophora teres; 500 ppm active compound, barley, protective, evaluation 7-9 days after inoculation): 95%
